Test results reported in paper PMC5473940, “SAF-A Regulates Interphase Chromosome Structure through Oligomerization with Chromatin-Associated RNAs” (Cell, 2017).

Experiments:
Assay type in all cases: binding
[1] = target: T1, FLAG-tagged full-length SAF-A (Homo sapiens, UniProt Q00839); assay: stabilisation of immuno-purified oligomer, native PAGE western blot; conditions: 1 mM nucleotide, 37 °C, 10 mM DTT to reverse cross-links
T1 construct: gene HNRNPU

[2] = target: T2, SAF-A AAA+ domain (His-tagged AAA+ fragment) (Homo sapiens, UniProt Q00839, K510A, form not given); assay: intrinsic fluorescence quenching (ex […] nm, em […] nm); conditions: pH 7.5, 37 °C, 10 mM MgCl2, 125 mM NaCl, 5 mM DTT; Walker A mutant
T2 construct: gene HNRNPU; AAA+ domain fragment, N-terminal 6xHis in pET32a, E. coli BL21(DE3); exact borders not in text (AAA domain modelled as aa 469-653)

[3] = target: T3, SAF-A AAA+ domain (His-tagged AAA+ fragment) (Homo sapiens, UniProt Q00839); assay: as above
T3 construct: gene HNRNPU; AAA+ domain fragment, N-terminal 6xHis in pET32a, E. coli BL21(DE3); exact borders not in text (AAA domain modelled as aa 469-653)

[4] = target: T4, SAF-A AAA+ domain (His-tagged AAA+ fragment) (Homo sapiens, UniProt Q00839, D580A, form not given); assay: as above; conditions: pH 7.5, 37 °C, 10 mM MgCl2, 125 mM NaCl, 5 mM DTT; Walker B mutant
T4 construct: gene HNRNPU; AAA+ domain fragment, N-terminal 6xHis in pET32a, E. coli BL21(DE3); exact borders not in text (AAA domain modelled as aa 469-653)
T4 sequence (Q00839 507-691 D580A limits assumed): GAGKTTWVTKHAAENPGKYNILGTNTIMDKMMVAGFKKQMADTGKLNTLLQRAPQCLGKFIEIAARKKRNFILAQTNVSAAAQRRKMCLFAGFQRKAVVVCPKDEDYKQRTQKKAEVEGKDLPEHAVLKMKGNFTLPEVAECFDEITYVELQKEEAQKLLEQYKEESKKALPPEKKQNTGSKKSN

T2 sequence (Q00839 507-691 K510A limits assumed): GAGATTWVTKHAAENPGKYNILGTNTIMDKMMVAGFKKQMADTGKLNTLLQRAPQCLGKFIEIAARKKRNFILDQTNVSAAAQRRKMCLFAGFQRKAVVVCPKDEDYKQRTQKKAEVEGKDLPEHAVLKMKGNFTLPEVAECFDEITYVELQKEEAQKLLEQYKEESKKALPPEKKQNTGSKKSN
T3 sequence (Q00839 488-672 limits assumed): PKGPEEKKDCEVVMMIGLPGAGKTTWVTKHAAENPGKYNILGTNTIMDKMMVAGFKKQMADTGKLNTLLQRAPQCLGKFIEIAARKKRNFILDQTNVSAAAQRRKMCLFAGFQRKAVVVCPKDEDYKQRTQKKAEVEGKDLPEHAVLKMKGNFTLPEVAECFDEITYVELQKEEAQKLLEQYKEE
T1 sequence (Q00839 2-806 isoform Q00839-2): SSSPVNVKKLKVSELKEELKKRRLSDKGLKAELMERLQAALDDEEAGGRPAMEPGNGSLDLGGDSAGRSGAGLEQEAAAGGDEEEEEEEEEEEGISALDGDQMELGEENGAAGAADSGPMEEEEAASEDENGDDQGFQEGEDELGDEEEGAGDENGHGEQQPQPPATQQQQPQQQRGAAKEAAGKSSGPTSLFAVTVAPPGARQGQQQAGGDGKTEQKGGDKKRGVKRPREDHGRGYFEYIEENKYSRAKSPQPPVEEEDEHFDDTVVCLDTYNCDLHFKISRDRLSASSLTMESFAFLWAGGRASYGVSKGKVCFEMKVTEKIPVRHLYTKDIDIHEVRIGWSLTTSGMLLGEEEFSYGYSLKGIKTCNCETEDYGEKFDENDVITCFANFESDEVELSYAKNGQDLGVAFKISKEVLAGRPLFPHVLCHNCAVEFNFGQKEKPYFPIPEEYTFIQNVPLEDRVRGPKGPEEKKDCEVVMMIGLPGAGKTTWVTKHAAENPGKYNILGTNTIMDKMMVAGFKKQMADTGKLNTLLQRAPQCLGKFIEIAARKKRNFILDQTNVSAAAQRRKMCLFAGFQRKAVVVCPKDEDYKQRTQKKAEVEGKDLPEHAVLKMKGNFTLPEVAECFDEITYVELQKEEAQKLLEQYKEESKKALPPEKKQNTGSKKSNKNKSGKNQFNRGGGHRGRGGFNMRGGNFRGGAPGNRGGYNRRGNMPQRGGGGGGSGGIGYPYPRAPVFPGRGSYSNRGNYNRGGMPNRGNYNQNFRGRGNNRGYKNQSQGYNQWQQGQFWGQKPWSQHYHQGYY

stabilisation of immuno-purified oligomer, native PAGE western blot [1]: ATP or ATPγS stabilized the oligomers
Kd [3]: 38 µM
Kd [4]: 29 µM
SMILES: Nc1ncnc2c1ncn2[C@@H]1O[C@H](COP(=O)(O)OP(=O)(O)OP(=O)(O)O)[C@@H](O)[C@H]1O [ATP]
ATP binding abrogated (no binding) [2]: Mutation of the Walker A motif abrogated ATP binding
